Reference: patent US20150045387A1, “Bi-Aromatic And Tri-Aromatic Compounds As NADPH Oxidase 2 (Nox2) Inhibitors” (The University of Surrey, priority 2011, published 2015)

Legend:
[1] = system: bone marrow hematopoietic stem cells; assay: in vivo test of LMH001 on bone marrow hematopoietic stem cell proliferation (MTS assay); conditions: 2.2 mg/kg/day intra-peritoneal for two weeks, compared to vehicle injected controls, n=8 mice/per group
Experimental: FIG. 3 is a graph showing the effect of LMH001 (2 week, IP injection) on bone marrow hematopoietic stem cell proliferation in mice. Wild-type mice (C57BL6/J) at 5 months of age were injected intra-peritoneal with LMH001 at 2.2 mg/kg/day for two weeks. Bone marrow hematopoietic stem cells were isolated and test for cell proliferation by a MTS assay kit (Promega).
On the day of experiment, primary hematopoietic bone marrow cells were obtained from wild-type male C57BL/6 mice as described previously (11). Briefly, 12-16 week old mice were sacrificed by cervical dislocation and their hind legs dissected and carefully cleaned from adherent tissues. Next, the ends of each bone were removed to expose the marrow and this was collected by flushing the femurs and tibias using a 25 gauge needle loaded with Dulbecco's PBS. […]
The ex vivo proliferative capabilities of isolated BMSC or cultured cells were analyzed using the MTS proliferation assay. […] After 24 hours in culture medium containing LMH001 (0-10 μM), proliferation was assessed using the MTS (CellTiter 96 AQ; Promega, Madison, USA) assay according to the manufacturer's protocol. The absorbance at 490 nm was read using an ELISA plate reader (Perkin elmer), and the proliferation index calculated relative to the controls. The mean of 3 blank readings was subtracted from each corrected value. […]

[2] = system: HL-60 cells; assay: normal cell proliferation, MTS assay, HL-60; format: cell-based, human; conditions: HL-60, LMH001 up to 10 μM, 6, 12 and 24 h of culture
Experimental: (§1) A) SVEC4-10 cells and HepG2 cells were cultured in the presence or absence of LHM001 (0-10 μM) for 24 h and tested for cell proliferation using a MTS assay kit. B) HL-60 cells were cultured in the presence or absence of LMH001 (0-10 μM), and cell proliferation was examined at 6, 12 and 24 h of culture.
HL-60 is a human promyelocytic leukaemia cell line. The HL60 cells were grown in RPMI 1640 medium; containing 10% (v/v) heat inactivated foetal calf serum, 100 U/mL penicillin and […] streptomycin, in a humidified atmosphere at 37° C. with 5% CO2. HL60 cells were differentiated to the human neutrophils by culturing the cells in the culture medium in the presence of 1.25% v/v DMSO for 6 days before being used for the experiments.
The ex vivo proliferative capabilities of isolated BMSC or cultured cells were analyzed using the MTS proliferation assay. […] After 24 hours in culture medium containing LMH001 (0-10 μM), proliferation was assessed using the MTS (CellTiter 96 AQ; Promega, Madison, USA) assay according to the manufacturer's protocol. The absorbance at 490 nm was read using an ELISA plate reader (Perkin elmer), and the proliferation index calculated relative to the controls. The mean of 3 blank readings was subtracted from each corrected value.

[3] = system: microvascular endothelial cells (SVEC4-10); assay: basal and angiotensin II induced O2.- production, lucigenin-chemiluminescence; format: cell-based, mouse; conditions: LMH001 5 μM, 24 h in culture, cell homogenates, NADPH-dependent
Experimental: FIG. 10 is a graph showing the effects of LMH001 in culture on basal and angiotensin II induced O2.^− production by microvascular endothelial cells (SVEC4-10). SVEC4-10 cells were cultured in medium alone (Basal) or in the presence of Angiotensin II (AngII, 200 nM) with or without LMH001 (5 μM) for 24 h. Cells were then harvested and cell homogenates were used for the measurement of NADPH-dependent O2.^− production by lucigenin-chemiluminescence. *P<0.05 (n=3 experiments). […]
O2^− production by different cell types was measured using lucigenin (5 μM)-chemiluminescence. A microplate luminometer (LumiStar, BMG) was used, which allows the examination of 96 samples at the same time with kinetic reading facilities. […] Dark-adapted lucigenin (5 μM) was added into the well through an auto-dispenser located in the dark chamber just before reading. The light emission was recorded over a 60 minute period and expressed as arbitrary MLU measured by the illuminometer. Each experiment was performed in triplicate and the mean of 3 blank readings was subtracted from each corrected value for each reading. […]
O2^− production was also studied using total cell homogenate (for the endothelial cells and the fibroblasts). […] Soluble protein concentration was determined using a kit from Bio-Rad Laboratories Ltd. (Hertfordshire, U.K.). […]

[4] = system: SVEC4-10 cells; assay: normal cell proliferation, MTS assay, SVEC4-10; format: cell-based, mouse; conditions: SVEC4-10, LMH001 up to 10 μM, 24 h
Experimental: as §1
The mouse lymph node microvascular endothelial cell line (SVEC4-10) was from the American Type Culture Collection (CRL-2167) and grown in DMEM, containing 10% (v/v) heat inactivated foetal calf serum, 100 U/mL penicillin and […] streptomycin, in a humidified atmosphere at 37° C. with 5% CO2.
The ex vivo proliferative capabilities of isolated BMSC or cultured cells were analyzed using the MTS proliferation assay. BMSC were suspended in Dulbecco's modified Eagle's medium supplemented with 5% fetal bovine serum (Sigma), 100 U/mL penicillin and 100 μg/mL streptomycin, and plated in 1% gelatin coated 96-well plates at a density of 1×10^5 cells/well in triplicate. After 24 hours in culture medium containing LMH001 (0-10 μM), proliferation was assessed using the MTS (CellTiter 96 AQ; Promega, Madison, USA) assay according to the manufacturer's protocol. The absorbance at 490 nm was read using an ELISA plate reader (Perkin elmer), and the proliferation index calculated relative to the controls. The mean of 3 blank readings was subtracted from each corrected value.

With `O=C(OCc1cccc(O)c1O)c1ccc(O)c(CO)c1` [LMH001, (2,3,-dihydroxyphenyl)methyl 4-hydroxy-3-(hydroxymethyl)benzoate] the “toxic effect on bone marrow hematopoietic stem cell proliferation” value [1] was “no toxic effect”, the “normal cell proliferation under physiological condition” value [2] was “no significant effect” and the “AngII-induced endothelial O2.- production” value ([3]; Angiotensin II 200 nM) was “completely inhibited”. The “basal cell O2.- production” value ([3]; medium alone) was “no effect” and the “normal cell proliferation under physiological condition” value [4] was “no significant effect”.
